Key:
[1] = Treadmill test (Bruce protocol), single patient with stable coronary artery disease; assay type: in vivo, human
Method: The patient was tested for treadmill performance. After two baseline treadmill tests, following the Bruce protocol, they received orally administered D-ribose (40 gm in three divided doses daily) for three days and completed a third treadmill test. […] In each test, this patient concluded the test due to shortness of breath, but experienced no angina.
It is generally accepted that the product of heart rate and systemic pressure is a measure of myocardial function and energy level, with lower numbers indicating better myocardial function. As a result of the administration of ribose, average tolerated time on the treadmill increased.

[2] = Self administration of ribose, subject with low energy after systemic bacterial infection; assay type: in vivo, human
Source text: An example of a subject having no overt disease who benefitted from self-administered ribose is a person. They had adhered to a strict weekly exercise regimen most of their life until sustaining a systemic bacterial infection, which required admission to the intensive care unit for one month and rehabilitation for an additional month. Their cardiovascular and pulmonary systems were predominantly affected during and following their illness and function had not recovered to its previous levels, or to their satisfaction, after one year.
Following convalescence, they have attempted to resume an exercise regimen, which involves running on a treadmill four days a week and lifting weights for two days a week. The runs were restricted to short intervals. Following the daily exercises, they have continuously experienced fatigue to the point of exhaustion and has required frequent naps. The patient began self-administering oral D-ribose at two doses per day, 4-5 grams per dose. Within seven days, they testified that their “pep” and exercise tolerance increased. For the first time since their illness, they are able to run as long as 30 minutes on the treadmill. They still experience a Degree of fatigue, but has been able to discontinue the naps after exercise. They continue on the daily oral doses of ribose, along with their scheduled exercises and feels a continuing improvement in their energy level after four weeks of ribose administration.

ATP = ATP in vastis lateralis muscle biopsies (Ribose Athlete Study); assay type: in vivo, human; conditions: for ATP Recovery % of Pre: 48 hours recovery vs initial level
Method: Four healthy, fit subjects in the age range 24 to 26 years of age were tested. The group was selected to be homogeneous regarding fitness level, gender and mean age with no known metabolic, neuronal, endocrine or cardiopulmonary disorders. All were capable of or had experience with cycling. The study protocol included four phases: (1) an initial baseline phase consisting of no exercise session; (2) a loading phase including three days of administration of either D-ribose or placebo (glucose) three times per day; (3) a training phase of three days employing exercise sessions characterized by serial (N=6) bouts of short (10 second) high-intensity cycle sprints at 7% body mass resistance with 50 second rest periods between sprints twice per day (morning and afternoon), and (4) a recovery phase for a period of 48 hours after the final training session. FIG. 1 is a diagram of a single cycle sprint bout. Muscle biopsies (MB) were performed on the […] lateralis muscle using both legs in order to evenly distribute and minimize sampling and possible muscle soreness per leg due to the biopsy itself. The first MB was collected at rest at the beginning of the study to establish a baseline and immediately after the first training-session of day 0 or the first phase. During the loading phase, no MB was taken. Muscle Biposies were taken following the final training session and after 48 hours of recovery. Two subjects were randomly selected for inclusion into the placebo or ribose group. Ribose or glucose was administered orally in a 250 ml iso-osmotic solution containing 10.0 grams of either ribose or placebo three times per day for three days preceding training (loading phase) and for three days during training (training phase). One-half liter isotonic electrolyte solution was given immediately post exercise and again 30 minutes later to avoid dehydration. The concentration of the following analytes was determined in the MB samples: ATP, ADP, AMP, IMP (inosine monophosphate), TAN (total adenine nucleotides), creatine phosphate and creatine.

[3] = Sprint power output and well-being in normal untrained subjects (planned); assay type: in vivo, human; conditions: 5 grams of D-ribose in 200 ml. of water after each sprint bout
Source text: D-ribose, given immediately before and during exercise, can provide a benefit to those subjects who have not been previously trained. Four healthy, normal male volunteers will be tested for sprint power output on an exercycle, as for Example 2 above. Each subject will serve as their own control. Between the sprint bouts, the subjects will cycle slowly and continuously. Total test time will be one hour, with four sprint bouts during the test. Following the initial baseline test and following each sprint bout, the subjects will be given 5 grams of D-ribose in 200 ml. of water or a similar tasting placebo (glucose). Sprint power output will be tested 15 minutes after each ingesting of the test solutions. Each subject will undergo two sessions, one week apart, one with ribose and one with placebo, in randomized order. The placebo will be sweetened with glucose in order to be indistinguishable from the ribose solution.

[4] = oral, humans; cited from earlier work
[5] = cited from earlier work
[6] = Exercise induced angina, single patient with coronary artery disease; assay type: in vivo, human
Source text: A patient with a history of coronary artery disease, status post triple coronary artery bypass, experienced exercise induced angina. Their present medications are: enalapril (an angiotensin converting enzyme inhibitor), carvedilol (a β blocking agent), nitroglycerine patch and nitroglycerine tablets sublingual as needed. […] The patient performed poorly on two stress tests. Their exercise regimen consisted of a daily walk. Due to the development of angina, the patient was able to walk less than one mile per day, at which point they took sublingual nitroglycerine. The patient was given oral D-ribose dissolved in about 250 cc. of water. Over a six-month period, the patient received intermittent doses of 5-10 grams per day of D-ribose. […] When the ribose was discontinued, their pre-ribose, anginal-inducing exercise state recurred, which necessitated the use of supplemental oral nitroglycerine.

de novo synthesis of AMP = conditions: ribose added to the perfusate; cited from earlier work

## O=C[C@H](O)[C@H](O)[C@H](O)CO [Ribose, D-ribose]
[1]; 0 (rest), Test vs average of two baselines
  Rate-pressure product, % change: −9.55%
[1]; 0 (rest), oral D-ribose 40 gm in three divided doses daily for three days
  Rate-pressure product (beats per minute times systolic blood pressure mm Hg), Test: 9,177
[1]; 3 minutes on treadmill, after D-ribose
  Rate-pressure product (beats per minute times systolic blood pressure mm Hg), Test: 15,272
[1]; 3 minutes, Test vs average of two baselines
  Rate-pressure product, % change: −1.60%
[1]; 6 minutes on treadmill, after D-ribose
  Rate-pressure product (beats per minute times systolic blood pressure mm Hg), Test: 20,592
[1]; 6 minutes, Test vs average of two baselines
  Rate-pressure product, % change: −15.68%
[1]; 9 minutes on treadmill, after D-ribose
  Rate-pressure product (beats per minute times systolic blood pressure mm Hg), Test: 25,356
[1]; 9 minutes, Test vs average of two baselines
  Rate-pressure product, % change: −9.87%
[1]; Test vs average of two baselines
  Tolerated time, % change: 5.06%
[1]; during ribose administration
  patient's subjective report: feeling more energetic
[1]; treadmill, Bruce protocol, after D-ribose
  Tolerated time, Test: 540.00 s
[2]; four weeks of oral ribose administration
  adverse effects: no adverse effects
[2]; oral D-ribose two doses per day, 4-5 grams per dose
  time able to run on the treadmill: ≤ 30 min
[2]; within seven days of oral D-ribose, two doses per day, 4-5 grams per dose
  "pep" and exercise tolerance: increased
ATP
  ATP Recovery % of Pre: 82%
ATP; listed as ribose
  ATP Recovery % of Pre: 82%
ATP; in vivo
  ATP Change Post-Rec: 6.90 mmol/kg dw
  ATP Change Pre-Post: −11.43 mmol/kg dw
ATP; muscle biopsy after 48 hours of recovery
  Mean ATP Values, Recovery: 20.80 mmol/kg dw
ATP; muscle biopsy following the final training session
  Mean ATP Values, Post: 13.90 mmol/kg dw
ATP; muscle biopsy, after three days ribose loading, before training
  Mean ATP Values, Pre: 25.33 mmol/kg dw
[3]
  subjective feeling of well being: subjectively higher feeling of well being
[3]; sustained mild exercise
  sprint power output after ribose vs placebo: higher power output
[4]
  treatment of cardiac insufficiency and hypovolemic shock: effective
[5]; MAD-deficient patients
  symptoms of MAD-deficient patients: relieved
[5]; normal volunteers
  effect in normal volunteers: no beneficial effect
[6]; oral D-ribose 5-10 grams per day
  patient's subjective evaluation of the ribose treatment: much less angina pain
[6]; oral D-ribose 5-10 grams per day intermittent over six months, before: less than one mile per day
  exercise tolerance (daily walk) without nitroglycerine: two miles per day
De novo synthesis of AMP
  de novo synthesis of AMP in sedentary muscle: increases the de novo synthesis of AMP
  decline in de novo synthesis in contracting muscle: does not eliminate the decline

Source: patent US6534480B2, “Compositions for increasing energy in vivo” (Bioenergy Inc., priority 1999, dated 2003)
